Laboratory results from paper PMC5635026, “Homo-PROTACs: bivalent small-molecule dimerizers of the VHL E3 ubiquitin ligase to induce self-degradation” (Nature Communications, 2017).

Experiments:
[1] = tested on: Hdy-HIF-1α; assay: Immunoblot of HIF-1α / hydroxylated HIF-1α levels in HeLa cells; assay type: cell-based, Human; details: HeLa; for protein levels of hydroxylated HIF-1α (Hdy-HIF-1α): 1 µM, 10 h; for stabilization of Hdy-HIF-1α: 100 µM
Protocol: (§1) Cell culture. Human cell lines HeLa, U2OS and HEK 293, purchased from ATCC, were propagated in DMEM supplemented with 10% fetal bovine serum (FBS), L- glutamine, 100 μg ml^−1 of penicillin/streptomycin at 37 °C and 5% CO2. Cells were maintained for no more than 30 passages. All cell lines were routinely tested for mycoplasma contamination using MycoAlert kit from Lonza. For compound treatment experiments, cells were transferred in six-well plates with either 3 × 10^5 or 5 × 10^5 cells per well in 2 ml of media. At 80% confluence, cells were treated with compounds at the desired concentration, reaching final DMSO concentration of 0.1% v/v. Cells were incubated at 37 °C and 5% CO2 for the desired time before harvesting.
(§2) Immunoblotting. Cells were lysed in lysis buffer (20 mM Tris pH 8, 150 mM NaCl, 1% Triton × 100) and a protease inhibitor cocktail (Roche) per 10 ml buffer. For protein extracts, the dishes were placed on ice. The media was aspirated and the tissue layer washed twice with ice-cold phosphate buffer saline (PBS). Lysis buffer (120 μl) was added and the cells detached from the surface with a cell scraper. After removal of the insoluble fraction by centrifugation, the protein concentration of the supernatant was determined by Pierce™ Coomassie (Bradford) Protein Assay Kit. Protein extracts were fractionated by SDS-PAGE on 4–12% Tris-Acetate NuPage® Novex® (Life Technologies) polyacrylamide gels and transferred to a nitrocellulose membrane using wet transfer. The membrane was then blocked with 5 % w/v Bovine serum albumin (BSA) in Tris-buffered saline (TBS) with 0.1% w/v Tween-20. For detecting proteins the following primary antibodies in the given concentrations were used: anti-β-Actin (Cell Signaling Technology, 4970S, 13E5) 1:2000, anti-VHL (Cell Signaling Technology, #68547) 1:1000, anti-Hif-1α (BD Biosciences, 610959, clone 54) 1:1,000, anti-hydroxy-HIF-1α (Hyp564) (Cell Signaling Techonology; #3434) 1:1,000, anti-PHD2 (Bethyl Laboratories; A300-322A) 1:1,000, anti-PHD3 (Bethyl Laboratories; A300-327A) 1:1000, anti-CRBN (Proteintech; 11435-1-AP) 1:1,000. Following incubation with a horseradish peroxidase-conjugated secondary antibody (Cell Signaling Technology), the signal was developed using enhanced chemiluminescence (ECL) Western Blotting Detection Kit (Amersham) on Amersham Hyperfilm ECL film (Amersham). Band quantification was performed using ImageJ software and reported as relative amount as ratio of the each protein band relative to the lane’s loading control. The values obtained were then normalized to 0.1% DMSO vehicle control. See Supplementary Fig. 12 for full-scanned images of western-blots shown in the main text figures.

[2] = tested on: Alsin (ALS2); assay: TMT MS proteomics in HeLa cells, ALS2 abundance; assay type: cell-based, Homo sapiens; details: 1 µM, 10 h, two replicates
Protocol: MS proteomics. Sample preparation. HeLa cells were seeded at 5 × 10^6 on a 10 cm plate 16 h before treatment. […] Cells were incubated at 37 °C and 5% CO2 for 10 h before harvesting. Cells were placed on ice and medium was removed and cells were washed twice with cold PBS. Cells were lysed in 0.5 ml of 100 mM Tris pH 8.0, 4% (w/v) SDS supplemented with protease inhibitor cocktail (Roche). The lysate was pulse sonicated briefly and then centrifuged at 17,000 × g for 15 min at 4 °C. The supernatant fraction of cell extract was snap-frozen in liquid nitrogen and stored in −80 °C freezer. Further sample processing, digestion, desalting, labeling and fractionation were performed as previously described.
nLC-MS/MS analysis. The TMT 10plex fractions were first analyzed as previously described. Briefly, the TMT 10plex fractions were analyzed sequentially on a Q Exactive HF Hybrid Quadrupole-Orbitrap Mass Spectrometer (Thermo Scientific) coupled to an UltiMate 3000 RSLCnano UHPLC system (Thermo Scientific) and EasySpray column (75 μm × 50 cm, PepMap RSLC C18 column, 2 μm, 100 Å, Thermo Scientific). The MS2 isolation window was set to 0.4 Da and the resolution set at 120,000. MS2 resolution was set at 60,000. The AGC targets for MS1 and MS2 were set at 3e^6 ions and 1e5 ions, respectively. The normalized collision energy was set at 32%. […] After the first analysis, the TMT labeled fractions were re-analyzed on the Q-Exactive HF using the same instrument settings and a target list generated from a theoretical trypsin digest of VHL. […] After the second analysis, two fractions were further analyzed using a targeted SIM/ddMS2 method on the Q-Exactive HF. […]
Peptide and protein identification. All the raw MS data files from the three analyses were merged and searched against the Uniprot-sprot-Trembl-Human-Canonical database by Maxquant software 1.5.3.30 for protein identification and TMT reporter ion quantitation. […] Quantified proteins were filtered if the absolute fold-change difference between the two DMSO replicates was ≥ 1.5.

[3] = target: pVHL30 (Homo sapiens, UniProt P40337); assay: Immunoblot of pVHL30 protein level in HeLa cells after compound treatment; assay type: cell-based; parameters: endogenous in cells; host or cells: HeLa; details: for depletion of target protein (pVHL30 / VHL) / remaining activity at 1 µM: 10 h; for remaining activity at 1 µM: DMSO = 100, Fig. 4a, read-out: pVHL30 band quantification normalized to 0.1% DMSO
Sequence of pVHL30 (P40337 whole entry): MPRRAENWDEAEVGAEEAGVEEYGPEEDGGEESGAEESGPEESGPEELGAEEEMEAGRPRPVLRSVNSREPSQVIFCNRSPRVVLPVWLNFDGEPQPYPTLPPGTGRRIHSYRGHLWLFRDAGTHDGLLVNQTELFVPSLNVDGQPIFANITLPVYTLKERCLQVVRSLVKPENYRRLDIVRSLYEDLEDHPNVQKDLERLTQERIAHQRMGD
Protocol: as §1, §2

| depletion of target protein (pVHL30 / VHL) ([3]; 1 µM) | remaining activity at 1 µM ([3]; 1 µM) | degradation of pVHL in time course ([3]; 1 µM, even in the longer time points) | increase in cellular activity compared to parent inhibitor VH032 [3] | pVHL30 levels detected ([3]; 1 µM, after 24–36 h treatment) | decrease of pVHL30 level ([3]; 1 µM, after 2 h) | decrease of pVHL30 level ([3]; 1 µM, after 8 h) | DC99 (complete depletion of pVHL30) ([3]; 4 h) | effective degrading concentrations lower than inhibitory concentrations of VH032 ([3]; compared to VH032) | Compound | protein levels of hydroxylated HIF-1α (Hdy-HIF-1α) [1] | stabilization of Hdy-HIF-1α [1] | average normalized ratio to DMSO, ALS2 [2] |
| --- | --- | --- | --- | --- | --- | --- | --- | --- | --- | --- | --- | --- |
| total knockdown | 3% |  |  |  |  |  |  |  | Cc1ncsc1-c1ccc(CNC(=O)[C@@H]2C[C@@H](O)CN2C(=O)[C@@H](NC(=O)COCCOCCOCCOCCOCC(=O)N[C@H](C(=O)N2C[C@H](O)C[C@H]2C(=O)NCc2ccc(-c3scnc3C)cc2)C(C)(C)C)C(C)(C)C)cc1 [CM10, N ^1 ,N ^17-bis((S)-1-((2S,4R)-4-hydroxy-2-((4-(4-methylthiazol-5-yl)benzyl)carbamoyl)pyrrolidin-1-yl)-3,3-dimethyl-1-oxobutan-2-yl)-3,6,9,12,15-pentaoxaheptadecanediamide] | detectable albeit low increase | comparable with the effect obtained with VH032 alone | 1.00 |
|  | 19% | Incomplete degradation |  |  |  |  |  |  | Cc1ncsc1-c1ccc(CNC(=O)[C@@H]2C[C@@H](O)CN2C(=O)[C@@H](NC(=O)COCCOCCOCCOCC(=O)N[C@H](C(=O)N2C[C@H](O)C[C@H]2C(=O)NCc2ccc(-c3scnc3C)cc2)C(C)(C)C)C(C)(C)C)cc1 [CM09, N ^1 ,N ^14-bis((S)-1-((2S,4R)-4-hydroxy-2-((4-(4-methylthiazol-5-yl)benzyl)carbamoyl)pyrrolidin-1-yl)-3,3-dimethyl-1-oxobutan-2-yl)-3,6,9,12-tetraoxatetradecanediamide] |  | comparable with the effect obtained with VH032 alone | 0.98 |
| total knockdown | 1% |  | > 1000 fold | up to 11% | > 70% | essentially to completion | 10 nM | > 3 orders of magnitude | Cc1ncsc1-c1ccc(CNC(=O)[C@@H]2C[C@@H](O)CN2C(=O)[C@@H](NC(=O)COCCOCCOCCOCCOCCOCC(=O)N[C@H](C(=O)N2C[C@H](O)C[C@H]2C(=O)NCc2ccc(-c3scnc3C)cc2)C(C)(C)C)C(C)(C)C)cc1 [CM11, N ^1 ,N ^20-bis((S)-1-((2S,4R)-4-hydroxy-2-((4-(4-methylthiazol-5-yl)benzyl)carbamoyl)pyrrolidin-1-yl)-3,3-dimethyl-1-oxobutan-2-yl)-3,6,9,12,15,18-hexaoxaicosanediamide] | detectable albeit low increase | comparable with the effect obtained with VH032 alone | 0.98 |
